Assay results as given in the supplement of paper PMC10733146.

How the values were obtained:
Experiment in all cases: viability relative to DMSO control (fraction); higher = less drug effect (more viable cells)
Conditions in all cases: 48 h
[1] = tested on: primary AML patient cells (S085)
How it was run: (§1)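 The cells were primary mononuclear tumour cells, either fresh or cryopreserved, isolated by Ficoll from blood or bone marrow or derived from processed lymph node. Each well of a 384-well plate received 4 × 10^4 cells onto compounds pre-plated at five concentrations, with one well per concentration. The medium was RPMI-1640 with penicillin/streptomycin, L-glutamine and human serum, and plates stood at 37 °C and 5% CO2 for 48 h. Viability is reported as CellTiter-Glo luminescence relative to the median of 16 inner DMSO wells.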

[2] = tested on: primary MCL patient cells (S041)
How it was run: as §1

[3] = tested on: primary MCL patient cells (S063)
How it was run: as §1

[4] = tested on: primary T-NHL patient cells (S058)
How it was run: as §1

[5] = tested on: primary AML patient cells (S012)
How it was run: as §1

[6] = tested on: primary AML patient cells (S056)
How it was run: as §1

[7] = tested on: primary DLBCL patient cells (S049)
How it was run: as §1

[8] = tested on: primary MCL patient cells (S068)
How it was run: as §1

[9] = tested on: primary CLL patient cells (S031)
How it was run: as §1

[10] = tested on: primary T-PLL patient cells (S008)
How it was run: as §1

[11] = tested on: primary AML patient cells (S037)
How it was run: as §1

[12] = tested on: primary BL patient cells (S005)
How it was run: as §1

[13] = tested on: primary AML patient cells (S011)
How it was run: as §1

[14] = tested on: primary DLBCL patient cells (S076)
How it was run: as §1

[15] = tested on: primary AML patient cells (S081)
How it was run: as §1

[16] = tested on: primary AML patient cells (S006)
How it was run: as §1

[17] = tested on: primary CLL patient cells (S043)
How it was run: as §1

CC(=O)Nc1cccc(-n2c(=O)n(C3CC3)c(=O)c3c(Nc4ccc(I)cc4F)n(C)c(=O)c(C)c32)c1 [Trametinib]
viability ([1]; 0.0008 µM): 0.667
viability ([1]; 0.004 µM): 0.618
viability ([1]; 0.02 µM): 0.484
viability ([1]; 0.1 µM): 0.456
viability ([1]; 0.5 µM): 0.415
viability ([2]; 0.0008 µM): 0.989
viability ([2]; 0.004 µM): 1.04
viability ([2]; 0.02 µM): 1.03
viability ([2]; 0.1 µM): 1.01
viability ([2]; 0.5 µM): 1.02
viability ([3]; 0.0008 µM): 0.991
viability ([3]; 0.004 µM): 0.973
viability ([3]; 0.02 µM): 0.987
viability ([3]; 0.1 µM): 0.949
viability ([3]; 0.5 µM): 0.936
viability ([4]; 0.0008 µM): 0.918
viability ([4]; 0.004 µM): 0.98
viability ([4]; 0.02 µM): 0.969
viability ([4]; 0.1 µM): 0.967
viability ([4]; 0.5 µM): 0.934
viability ([5]; 0.0008 µM): 0.799
viability ([5]; 0.004 µM): 0.808
viability ([5]; 0.02 µM): 0.45
viability ([5]; 0.1 µM): 0.406
viability ([5]; 0.5 µM): 0.306
viability ([6]; 0.0008 µM): 0.77
viability ([6]; 0.004 µM): 0.66
viability ([6]; 0.02 µM): 0.588
viability ([6]; 0.1 µM): 0.535
viability ([6]; 0.5 µM): 0.514
viability ([7]; 0.0008 µM): 0.769
viability ([7]; 0.004 µM): 0.834
viability ([7]; 0.02 µM): 0.705
viability ([7]; 0.1 µM): 0.729
viability ([7]; 0.5 µM): 0.658
viability ([8]; 0.0008 µM): 0.921
viability ([8]; 0.004 µM): 0.8
viability ([8]; 0.02 µM): 0.791
viability ([8]; 0.1 µM): 0.727
viability ([8]; 0.5 µM): 0.7
viability ([9]; 0.0008 µM): 0.648
viability ([9]; 0.004 µM): 0.49
viability ([9]; 0.02 µM): 0.379
viability ([9]; 0.1 µM): 0.349
viability ([9]; 0.5 µM): 0.311
viability ([10]; 0.0008 µM): 0.965
viability ([10]; 0.004 µM): 1.05
viability ([10]; 0.02 µM): 0.955
viability ([10]; 0.1 µM): 1.07
viability ([10]; 0.5 µM): 0.905
viability ([11]; 0.0008 µM): 0.957
viability ([11]; 0.004 µM): 0.969
viability ([11]; 0.02 µM): 0.921
viability ([11]; 0.1 µM): 0.899
viability ([11]; 0.5 µM): 0.915
viability ([12]; 0.0008 µM): 0.943
viability ([12]; 0.004 µM): 0.964
viability ([12]; 0.02 µM): 1.01
viability ([12]; 0.1 µM): 0.984
viability ([12]; 0.5 µM): 0.912
viability ([13]; 0.0008 µM): 0.855
viability ([13]; 0.004 µM): 0.925
viability ([13]; 0.02 µM): 0.953
viability ([13]; 0.1 µM): 0.931
viability ([13]; 0.5 µM): 0.879
viability ([14]; 0.0008 µM): 0.752
viability ([14]; 0.004 µM): 0.789
viability ([14]; 0.02 µM): 0.63
viability ([14]; 0.1 µM): 0.706
viability ([14]; 0.5 µM): 0.648
viability ([15]; 0.0008 µM): 0.999
viability ([15]; 0.004 µM): 0.935
viability ([15]; 0.02 µM): 0.742
viability ([15]; 0.1 µM): 0.651
viability ([15]; 0.5 µM): 0.567
viability ([16]; 0.0008 µM): 0.888
viability ([16]; 0.004 µM): 0.939
viability ([16]; 0.02 µM): 0.787
viability ([16]; 0.1 µM): 0.86
viability ([16]; 0.5 µM): 0.798
viability ([17]; 0.0008 µM): 0.825
viability ([17]; 0.004 µM): 0.769
viability ([17]; 0.02 µM): 0.777
viability ([17]; 0.1 µM): 0.748
viability ([17]; 0.5 µM): 0.744
